From patent US8598131B2, “Method for treatment of lung infections by administration of aminoglycosides by aerolisation” (priority 2010, dated 2013) come the findings set out here.

A short description of data set [1]: Gamma scintigraphy lung deposition, two way crossover study. As to conditions: standard treatment, 300 mg using 5 mL in a Pari nebulizer.
Description: To assess the lung deposition of Tobramycin according to the therapeutic method according to the present disclosure, a two way non-randomised crossover study to studying the pulmonary distribution and pharmacokinetics in healthy subjects following single dose administration of Tobramycin via the Tobrair® device and PARI LC® PLUS jet nebulizer was performed. The study was designed as an open-labelled study as it is not possible to mask the identity of the aerosol delivery system used.
18 healthy, voluntary males and healthy, voluntary, non-pregnant, non-lactating females where subjected to the following treatment regimes:
Approximately 63 mg Tobramycin (180 mg/mL×0.35 mL) delivered to the lungs via the novel Tobrair® device over 7 deep, slow inhalations.
Gamma scintigraphy may also provide an assessment of the regional distribution of deposited drug or formulation in the lungs, with central regions representing mainly large airways and peripheral regions representing mainly small airways and alveoli.
In order to use gamma scintigraphy to assess the bronchopulmonary distribution of Tobramycin, the drug solution was labelled with a gamma emitting radioisotope as a surrogate marker. More specifically, technetium-99m diethylene triamine pentacetic acid (^99mTc-DTPA) was used in this study to achieve 10-20 MBq per dose using the Tobrair® device and PARI LC® PLUS jet nebulizer.
Data set [2] in a line: Safety assessment in the clinical study (adverse events, local irritation). Type of data set: in vivo. The following applies: 180 mg Tobramycin per ml, healthy subjects. Here is the method:
According to one aspect of the present disclosure, a pharmaceutical solution comprising 180 mg Tobramycin per ml water is used. This corresponds to approximately 3 fold the concentration of the solution in the marketed product (TOBI®). Tobramycin at 60 mg/mL is known to be well tolerated in healthy volunteers even at higher total dose levels; however it is considered that this increase in concentration potentially increases the risk of local irritation, but is not considered to be the primary driver for systemic exposure or systemic side effects in this study since the total dose level is lower.
Safety was assessed as well by reviewing adverse events data and vital signs data including pulse oximetry and spirometry data.

Molecules are shown by their SMILES.

With `NCC1OC(OC2C(N)CC(N)C(OC3OC(CO)C(O)C(N)C3O)C2O)C(N)CC1O` [Tobramycin, (2S,3R,4S,5S,6R)-4-amino-2-{[(1S,2S,3R,4S,6R)-4,6-diamino-3-{[2R,3R,5S,6R)-3-amino-6-(aminomethyl)-5-hydroxyoxan-2-yl]oxy}-2-(hydroxymethylcyclohexyl]oxy)-6-(hydroxymethyl)oxane-3,5-diol], in data set [1], the “dose reaching the lungs” value is “approx. 10%”. In addition, the local irritation entry in data set [2] was “only a few incidents of local irritation”.
